Experimental data reported in US10570121B2, “Substituted dihydroisoquinolinone compounds” (priority 2014, dated 2020).
Like-named read-outs stand apart in the source and are kept apart here.

Experiments:
EZH2 Mutant Y641N = EZH2 Mutant Y641N (Homo sapiens (Human), UniProt Q15910, Y641N); experiment: EZH2 Mutant Y641N nucleosome assay; format: biochemical; conditions: PRC2 4-protein complex 6 nM, 1.5 μM SAM, HeLa oligonucleosomes
WT EZH2 = WT EZH2 (Homo sapiens (Human), UniProt Q15910); experiment: WT EZH2 nucleosome assay; format: biochemical; conditions: PRC2 4-protein complex 4 nM, 1.5 μM SAM, HeLa oligonucleosomes
Experimental: The genes for EZH2, EED, SUZ12, and RBBP4 proteins were cloned into pBacPAK9 vectors (Clontech). RBBP4 was FLAG tagged on the N-terminal end. The baculovirus expressions of these proteins were used to co-infect SF9 insect cells. Insect cell pellets were lysed in a buffer containing 25 mM Tris pH8.0, 300 mM NaCl, 0.5 mM TCEP, complete EDTA-free protease inhibitor (Roche), 0.1% NP-40. The supernatant from the lysate was incubated with FLAG® M2 antibody resin (Sigma). The resin was washed on the chromatography column and eluted with 0.2 mg/ml FLAG peptide. The elute was incubated with omnicleave nucleases (Epicentre Technologies) at 4° C. overnight, then concentrated and loaded onto a Superdex 200 (GE Healthcare) column. The Superdex 200 column was eluted with 25 mM Tris pH8.0, 150 mM NaCl, 0.5 mM TCEP. Fractions containing the PRC2 complex were pooled.
A. Compound preparation • 1.
B. Reagent preparation • 1. […] Dilute TCA to 20% in DI water
C. Enzyme reaction • 1. […] Some compounds were tested under high SAM conditions.
D. Data analysis • 1. IC50 values were determined by fitting the data to a 4-parameter IC50 equation using proprietary curve fitting software. • 2. For compounds tested under high SAM conditions, Ki^app values were obtained by fitting the dose response curve to a model for competitive inhibition using proprietary curve fitting software. Preparation of HeLa Oligonucleosomes: Reagents • Cell Pellet: 15 L HeLa S3 (Accelgen)+6 L HeLa S3 (in house) • Mnase (Worthington Biochemicals) Equipment • SW-28 Rotor • Dounce Homogenizer/B Pestle Buffers • Lysis: 20 mM Hepes pH 7.5, 0.25M Sucrose, 3 mM MgCl2, 0.5% Nonidet P-40, 0.5 mM TCEP, 1 Roche Protease Tablet • B: 20 mM Hepes pH7.5, 3 mM MgCl2, 0.5 mM EDTA, 0.5 mM TCEP, 1 Roche Protease Tablet • MSB: 20 mM Hepes pH7.5, 0.4 M NaCl, 1 mM EDTA, 5% v/v Glycerol, 0.5 mM TCEP, 0.2 mM PMSF • LSB: 20 mM Hepes pH7.5, 0.1M NaCl, 1 mM EDTA, 0.5 mM TCEP, 0.2 mM PMSF • NG: 20 mM Hepes pH7.5, 1 mM EDTA, 0.4 m NaCl, 0.2 mM PMSF, 0.5 mM TCEP • Storage: 20 mM Hepes pH7.5, 1 mM EDTA, 10% Glycerol, 0.2 mM PMSF, 0.5 mM TCEP Protocol

[1] = EZH2 Mutant Y641N Nucleosome assay IC50 (μM)
[2] = WT EZH2 Nucleosome assay IC50 (μM)
[3] = read-out: EZH2 Mutant Y641N Nucleosome assay IC50
[4] = read-out: WT EZH2 Nucleosome assay IC50

Sequence of WT EZH2 (Q15910 whole entry, looked up): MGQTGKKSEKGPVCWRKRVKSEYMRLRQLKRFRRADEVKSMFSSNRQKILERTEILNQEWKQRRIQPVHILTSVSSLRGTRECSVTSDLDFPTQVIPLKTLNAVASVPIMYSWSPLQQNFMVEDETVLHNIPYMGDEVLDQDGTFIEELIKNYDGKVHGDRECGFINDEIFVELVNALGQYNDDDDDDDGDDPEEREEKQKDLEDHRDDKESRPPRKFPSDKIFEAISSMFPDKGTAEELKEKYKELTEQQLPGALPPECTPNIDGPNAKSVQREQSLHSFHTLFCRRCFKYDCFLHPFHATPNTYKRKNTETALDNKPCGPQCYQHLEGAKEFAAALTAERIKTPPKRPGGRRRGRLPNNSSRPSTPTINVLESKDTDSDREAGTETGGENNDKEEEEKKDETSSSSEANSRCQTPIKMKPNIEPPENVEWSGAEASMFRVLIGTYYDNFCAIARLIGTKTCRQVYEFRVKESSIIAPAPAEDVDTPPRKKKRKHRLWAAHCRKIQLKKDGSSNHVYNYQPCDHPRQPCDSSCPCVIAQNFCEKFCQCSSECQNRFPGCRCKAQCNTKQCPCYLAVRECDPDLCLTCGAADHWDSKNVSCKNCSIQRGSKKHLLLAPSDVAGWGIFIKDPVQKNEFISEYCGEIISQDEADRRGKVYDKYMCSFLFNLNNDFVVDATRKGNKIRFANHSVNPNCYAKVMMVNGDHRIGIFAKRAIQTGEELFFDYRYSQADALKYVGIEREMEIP
Sequence of WT EZH2 (O75530 whole entry partner, looked up): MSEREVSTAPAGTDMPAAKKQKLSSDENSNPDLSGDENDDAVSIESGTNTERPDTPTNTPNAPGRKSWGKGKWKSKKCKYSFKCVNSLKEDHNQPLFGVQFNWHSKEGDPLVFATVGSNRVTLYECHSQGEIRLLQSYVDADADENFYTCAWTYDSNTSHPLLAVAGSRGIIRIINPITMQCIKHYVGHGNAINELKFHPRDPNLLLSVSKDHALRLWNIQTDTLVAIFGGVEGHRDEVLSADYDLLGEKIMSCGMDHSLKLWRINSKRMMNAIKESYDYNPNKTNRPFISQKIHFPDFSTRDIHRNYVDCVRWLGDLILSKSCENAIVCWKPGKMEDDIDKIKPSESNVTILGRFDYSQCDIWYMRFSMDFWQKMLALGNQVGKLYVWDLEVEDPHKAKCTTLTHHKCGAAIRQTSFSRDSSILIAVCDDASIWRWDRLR
Sequence of WT EZH2 (Q15022 whole entry partner, looked up): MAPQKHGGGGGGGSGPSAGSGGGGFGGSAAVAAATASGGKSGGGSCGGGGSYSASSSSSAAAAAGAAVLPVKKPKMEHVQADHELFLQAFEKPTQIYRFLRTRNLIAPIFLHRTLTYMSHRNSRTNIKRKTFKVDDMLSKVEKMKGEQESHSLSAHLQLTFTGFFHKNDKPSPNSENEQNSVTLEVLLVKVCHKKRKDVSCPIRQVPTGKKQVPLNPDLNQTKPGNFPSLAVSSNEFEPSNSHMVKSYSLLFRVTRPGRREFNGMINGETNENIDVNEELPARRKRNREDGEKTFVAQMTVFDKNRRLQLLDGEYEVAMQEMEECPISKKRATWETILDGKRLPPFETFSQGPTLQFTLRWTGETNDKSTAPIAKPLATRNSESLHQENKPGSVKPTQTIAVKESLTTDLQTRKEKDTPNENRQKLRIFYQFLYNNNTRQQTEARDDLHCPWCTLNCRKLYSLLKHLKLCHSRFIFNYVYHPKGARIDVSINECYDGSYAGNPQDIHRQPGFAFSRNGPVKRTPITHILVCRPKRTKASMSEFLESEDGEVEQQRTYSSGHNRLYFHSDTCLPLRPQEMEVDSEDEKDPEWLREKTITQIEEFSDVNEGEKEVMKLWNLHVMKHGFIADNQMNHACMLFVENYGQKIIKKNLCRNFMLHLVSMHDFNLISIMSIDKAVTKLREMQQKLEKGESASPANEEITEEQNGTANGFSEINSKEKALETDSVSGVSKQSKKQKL
Sequence of WT EZH2 (Q09028 whole entry partner, looked up): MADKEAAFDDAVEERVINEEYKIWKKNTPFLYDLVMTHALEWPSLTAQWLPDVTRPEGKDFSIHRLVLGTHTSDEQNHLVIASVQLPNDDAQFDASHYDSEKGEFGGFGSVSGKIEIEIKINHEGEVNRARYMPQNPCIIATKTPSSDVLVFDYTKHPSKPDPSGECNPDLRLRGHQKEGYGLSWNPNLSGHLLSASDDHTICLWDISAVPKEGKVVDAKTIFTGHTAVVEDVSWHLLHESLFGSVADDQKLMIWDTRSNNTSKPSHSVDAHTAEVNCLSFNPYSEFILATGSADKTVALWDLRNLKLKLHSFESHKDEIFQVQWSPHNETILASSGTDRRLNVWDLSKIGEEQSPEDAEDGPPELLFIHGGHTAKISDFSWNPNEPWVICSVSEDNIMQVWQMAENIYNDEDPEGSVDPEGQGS
Sequence of EZH2 Mutant Y641N (Q15910 whole entry Y641N, looked up): as the sequence (Q15910 whole entry, looked up) above, with Y641N counted along it
Sequence of EZH2 Mutant Y641N (O75530 whole entry partner, looked up): as the sequence (O75530 whole entry partner, looked up) above
Sequence of EZH2 Mutant Y641N (Q15022 whole entry partner, looked up): as the sequence (Q15022 whole entry partner, looked up) above
Sequence of EZH2 Mutant Y641N (Q09028 whole entry partner, looked up): as the sequence (Q09028 whole entry partner, looked up) above

Compound `Cc1cc(C)c(CN2CCc3c(Cl)cc(C(CO)C4CCOCC4)c(Cl)c3C2=O)c(=O)[nH]1` (racemic) [Example 31] has an IC50 (EZH2 Mutant Y641N; [1]) of 0.006 µM and an IC50 (WT EZH2; [2]) of 0.004 µM.

`Cc1cc(C)c(CN2CCc3c(Cl)cc(C(C)C#N)c(Cl)c3C2=O)c(=O)[nH]1` (racemic) [Example 32] gave an IC50 (EZH2 Mutant Y641N; [3]) of 1.13 µM and an IC50 (WT EZH2; [4]) of 0.093 µM.

For `Cc1cc(C)c(CN2CCc3c(Cl)cc(C(C)CCO)c(Cl)c3C2=O)c(=O)[nH]1` (racemic) [Example 33], the IC50 (EZH2 Mutant Y641N; [3]) was 0.07 µM and the IC50 (WT EZH2; [4]) was 0.012 µM.

Work on `Cc1cc(C)c(CN2CCc3c(Cl)cc([C@H](CO)[C@@H]4CCOC4)c(Cl)c3C2=O)c(=O)[nH]1` (single isomer, unassigned) [Example 2, 5,8-dichloro-2-[(4,6-dimethyl-2-oxo-1,2-dihydropyridin-3-yl)methyl]-7-{(1R*)-2-hydroxy-1-[(3S*)-tetrahydrofuran-3-yl]ethyl}-3,4-dihydroisoquinolin-1(2H)-one] yielded an IC50 (EZH2 Mutant Y641N; [1]) of 0.004 µM and an IC50 (WT EZH2; [2]) of 0.002 µM.

Compound `COC(CO)c1cc(Cl)c2c(c1Cl)C(=O)N(Cc1c(C)cc(C)[nH]c1=O)CC2` (single isomer, unassigned) [Example 10, 5,8-dichloro-2-[(4,6-dimethyl-2-oxo-1,2-dihydropyridin-3-yl)methyl]-7-(2-hydroxy-1-methoxyethyl)-3,4-dihydroisoquinolin-1(2H)-one] has an IC50 (EZH2 Mutant Y641N; [3]) of 1.98 µM and an IC50 (WT EZH2; [4]) of 0.326 µM.

`COC(CO)c1cc(Cl)c2c(c1Cl)C(=O)N(Cc1c(C)cc(C)[nH]c1=O)CC2` (single isomer, unassigned) [Example 11, 5,8-dichloro-2-[(4,6-dimethyl-2-oxo-1,2-dihydropyridin-3-yl)methyl]-7-(2-hydroxy-1-methoxyethyl)-3,4-dihydroisoquinolin-1(2H)-one] showed an IC50 (EZH2 Mutant Y641N; [3]) of 0.174 µM and an IC50 (WT EZH2; [4]) of 0.038 µM.

`CCC(O)c1cc(Cl)c2c(c1Cl)C(=O)N(Cc1c(C)cc(C)[nH]c1=O)CC2` (single isomer, unassigned) [Example 27] was tested, and the IC50 (EZH2 Mutant Y641N; [1]) was 0.3 µM and the IC50 (WT EZH2; [2]) was 0.037 µM.

For `CCC(O)c1cc(Cl)c2c(c1Cl)C(=O)N(Cc1c(C)cc(C)[nH]c1=O)CC2` (single isomer, unassigned) [Example 28], the IC50 (EZH2 Mutant Y641N; [1]) was 1.89 µM and the IC50 (WT EZH2; [2]) was 0.126 µM.

`CCC(CO)c1cc(Cl)c2c(c1Cl)C(=O)N(Cc1c(C)cc(C)[nH]c1=O)CC2` (single isomer, unassigned) [Example 29] was tested, and the IC50 (EZH2 Mutant Y641N; [1]) was 0.107 µM and the IC50 (WT EZH2; [2]) was 0.017 µM.

`CCC(CO)c1cc(Cl)c2c(c1Cl)C(=O)N(Cc1c(C)cc(C)[nH]c1=O)CC2` (single isomer, unassigned) [Example 30] was tested, and the IC50 (EZH2 Mutant Y641N; [1]) was 0.02 µM and the IC50 (WT EZH2; [2]) was 0.004 µM.

Work on `COC(c1cc(Cl)c2c(c1Cl)C(=O)N(Cc1c(C)cc(C)[nH]c1=O)CC2)C1CCN(C(=O)CO)CC1` (single isomer, unassigned) [Example 35, 5,8-dichloro-2-[(4,6-dimethyl-2-oxo-1,2-dihydropyridin-3-yl)methyl]-7-{[1-(hydroxyacetyl)piperidin-4-yl](methoxy)methyl}-3,4-dihydroisoquinolin-1(2H)-one] yielded an IC50 (EZH2 Mutant Y641N; [1]) of 0.002 µM and an IC50 (WT EZH2; [2]) of 0.002 µM.

For `Cc1cc(C)c(CN2CCc3c(Cl)cc(C(CO)C4CCOCC4)c(Cl)c3C2=O)c(=O)[nH]1` (single isomer, unassigned) [Example 37], the IC50 (EZH2 Mutant Y641N; [1]) was 0.002 µM and the IC50 (WT EZH2; [2]) was 0.001 µM.

`Cc1cc(C)c(CN2CCc3c(Cl)cc(C(CO)C4CCOCC4)c(Cl)c3C2=O)c(=O)[nH]1` (single isomer, unassigned) [Example 38] was tested, and the IC50 (EZH2 Mutant Y641N; [1]) was 0.74 µM and the IC50 (WT EZH2; [2]) was 0.378 µM.

With `Cc1cc(C)c(CN2CCc3c(Cl)cc(C(C)CCO)c(Cl)c3C2=O)c(=O)[nH]1` (single isomer, unassigned) [Example 39] the IC50 (EZH2 Mutant Y641N; [3]) was 0.242 µM and the IC50 (WT EZH2; [4]) was 0.04 µM.

`Cc1cc(C)c(CN2CCc3c(Cl)cc(C(C)CCO)c(Cl)c3C2=O)c(=O)[nH]1` (single isomer, unassigned) [Example 40] showed an IC50 (EZH2 Mutant Y641N; [3]) of 0.024 µM and an IC50 (WT EZH2; [4]) of 0.006 µM.

Compound `Cc1cc(C)c(CN2CCc3c(Cl)cc(C([C@H](C)O)[C@@H](C)O)c(Cl)c3C2=O)c(=O)[nH]1` (single isomer, unassigned) [Example 42] has an IC50 (EZH2 Mutant Y641N; [3]) of 0.102 µM and an IC50 (WT EZH2; [4]) of 0.012 µM.
